Reference: paper PMC7279487, “Dual Target Ligands with 4-tert-Butylphenoxy Scaffold as Histamine H3 Receptor Antagonists and Monoamine Oxidase B Inhibitors” (International Journal of Molecular Sciences, 2020)

Legend:
hH3R = conditions: read-out: H3R Ki; cited from earlier work
AChE = test system: AChE; set-up: method as in PMID 28861918; conditions: cited from earlier work
BuChE = test system: BuChE; set-up: method as in PMID 28861918; conditions: cited from earlier work
[1] = toxicity in HEK-293 cells (EZ4U); format: cell-based, human; conditions: human, HEK-293 cells; reference doxorubicin at 0.2 and 0.05 µM; 48 h incubation; read-out: HEK-293 cell viability
Procedure: The used reference cytostatic drug doxorubicin (DX) decreased cell viability <50% under the same conditions at very low concentrations of 0.2 and 0.05 µM. […] Oxidative damage was induced by very high toxic levels of hydrogen peroxide (H2O2; 300 µM), the popular cell model for PD research, in neuroblastoma SH-SY5Y cell line. […] Salsolinol (SAL) was used at a concentration of 50 µM as the reference compound with the proven neuroprotection activity.
The HEK-293 cells were seeded at a concentration of 1.5 × 10^4 cells/well in 200 μL culture medium and incubated for 24 h at 37 °C and 5% CO2. […] Then, 25 μL EZ4U labelling mixture (Biomedica, Vienna, Austria) was added and the cells were incubated for 2 h. The spectrophotometric absorbance of the samples was measured using a microplate reader (EnSpire, PerkinElmer, Waltham, MA, USA) at 492 nm. All measurements were performed in triplicate, and results are shown as mean ± SD.

SMILES	Ki (hH3R) [nM]	IC50 (AChE) [nM]	IC50 (BuChE) [nM]	viability at 48 h [1] [%]
C#CCN(C)Cc1cc2cc(OCCCN3CCCCC3)ccc2n1C [Contilisant]	11	530	1690	–
COc1cccc2c1C(=O)c1c(O)c3c(c(O)c1C2=O)C[C@@](O)(C(=O)CO)C[C@@H]3O[C@H]1C[C@H](N)[C@H](O)[C@H](C)O1 [doxorubicin (DX), doxorubicin, reference compound]	–	–	–	< 50
